Laboratory results taken from patent US8440460B2, “Methods for transdifferentiating cells” (The Board of Regents of the University of Texas System, priority 2005, dated 2013).
“And” between values parts separate entries of the source, which are not always exact repeats. Equal values may be shown once.

Key:
[1] = test system: HS-5 cells; test: Flow cytometry of 5-methylcytidine as a marker of global DNA methylation in HS-5 cells; format: cell-based, human; details: 5-azacytidine 2.5 uM overnight
Protocol: FIG. 3: Azacytidine hypomethylates HS-5 cells. […] HS-5 cells were treated w/ and w/o 5-azacytidine 2.5 uM overnight. After incubation the cells were harvested and washed in PBS. The cells were then fixed and permeabilized using the BD Cytofix/Cytoperm kit (BD Biosciences, San Diego Calif.) as per the kit instructions. After fixation and permeabilization the cells were stained using mouse anti 5-methylcytadine (Serotec Inc., Raleigh N.C.) for 30 minutes. After washing the cells 3 times in the Permwash buffer provided with the BD kit, the mouse antibody was then detected using an RPE labeled rabbit anti mouse IgG (Serotec) for 30 minutes. After 3 additional wash steps, the cells were resuspended in staining buffer (as per the BD kit) and analyzed on a FACSCaliber flow cytometer (BD Immunnocytometry Systems, La Jolla Calif.) for any decrease in 5-methylcytidine. […]
HS-5 cells were treated w/ and w/o 5-azacytidine 2.5 uM overnight. […] After washing the cells 3 times in the Permwash buffer provided with the BD kit, the mouse antibody was then detected using an RPE labeled rabbit anti mouse IgG (Serotec) for 30 minutes. After 3 additional wash steps, the cells were resuspended in staining buffer (as per the BD kit) and analyzed on a FACSCaliber flow cytometer (BD Immunnocytometry Systems, La Jolla Calif.) for any decrease in 5-methylcytidine. […]

[2] = test system: normal human foreskin fibroblasts; details: FIG. 2 schedule, FACS day 6
[3] = test system: HS-5 cells; test: CFU-GM colony culture assay in methylcellulose; format: cell-based, human; details: 14 days
Protocol: FIG. 5: HS-5 cells transdifferentiate into hematopoietic colony-forming cells. Converted (see FIG. 1) and untreated HS-5 cells were harvested from the tissue culture flasks and culture in methylcellulose in a cl0nigtenic assay in the presence of 50 ng/mL GM-CSF, 50 ng/mL SCF and erythropoietin as described above. After 14 days the cultures were examined using an inverted microscope.
Colony-forming unit granulocyte-macrophage (CFU-GM) colony culture assay. The colony-forming unit-granulocyte-macrophage (CFU-GM) clonogenic assay was performed as previously described (49). Briefly, 2×10^5 treated and untreated cells were cultured in 0.8% methylcellulose in IMDM (GIBCO) supplemented with 10% FCS, and 50 ng/ml recombinant human granulocyte-macrophage colony-stimulating factor. […] All cultures were evaluated after 14 days for the number of CFU-GM colonies, defined as a cluster of more than 50 cells containing granulocytes, monocytes and macrophages. To identify the cells comprising the CFU-GM colonies, single colonies were microaspirated at random, transferred to glass slides, dried and stained with Write's stain and microscopically analyzed.
Converted (see FIG. 1) and untreated HS-5 cells were harvested from the tissue culture flasks and culture in methylcellulose in a cl0nigtenic assay in the presence of 50 ng/mL GM-CSF, 50 ng/mL SCF and erythropoietin as described above. […]

[4] = test system: HS-5 fibroblast cell line; test: FACS analysis of hematopoietic cell surface markers (CD45, CD3, CD14, CD19) in treated HS-5 cells; format: cell-based, human; details: 5-azacytidine days 1 and 4, GM-CSF 50 ng/mL and SCF 50 ng/mL days 7 and 10 (FIG. 1 schedule), FACS day 13
Protocol: In these studies, HS-5 fibroblast cells were transferred to tissue culture flasks as described herein. 2.5 μg 5-azacytidine were added to the culture at days 1 and 4. Granulocyte macrophage colony-stimulating factor (GM-CSF; 50 ng/mL) and stem cell factor (SCF; 50 ng/mL) were added to the culture on days 7 and 10. The cells were harvested and analyzed for the presence of hematopoietic cell surface markets such as CD45 on day 13.
The human bone marrow stroma/MSC cell line HS-5 was obtained from ATCC. These fibroblast-like cells are plastic adherent and grow as a single layer in α-medium (GIBCO, Grand Island, N.Y.) supplemented with 10% fetal calf serum (FCS; Hyclone, Logan, Utah). […] When growth factors were added, α-medium was replaced with Iscove's modified Dulbecco's medium (IMDM; GIBCO).
For the HS-5 cultures, HS-5 fibroblast cells were transferred to tissue culture flasks as described. […] The cells were harvested and analyzed for the presence of hematopoietic cell surface markets such as CD45 on day 13.
In these studies, HS-5 cells were incubated with or without 5-azacytidine and/or growth factors according to the schedule described in FIG. 1. On day 13 the cells were harvested and analyzed for the presence of cell surface CD45 by FACS. All viable cells were analyzed and the CD45-corresponding isotypic control was used.

[5] = test system: normal bone marrow stroma (MSC) CD45-negative cells; test: FACS analysis of CD45 in treated CD45-negative normal bone marrow stroma cells (MSC); format: cell-based, human; details: FIG. 1 schedule
Protocol: Human bone marrow stroma cells were grown from the bone marrow of healthy individuals as described above. When the cultures matured and formed homogenous layers of fibroblast-looking cells (termed mesenchymal stem cells; MSC), the cells were trypsinized and analyzed by fluorescence activated cell scanner/sorter (FACS; above) for the presence of the cell surface marker CD45. When the adherent fibroblast-like MSC became CD45-negative, the cells were harvested and transferred to another tissue flask (day 1 of culture).
Generation of Bone Marrow Stroma Cell Cultures. […] The culture medium and floating cells were completely aspirated and replaced with fresh tissue culture medium. Upon confluence, cells were exposed to 0.05% trypsin and 0.53 mM EDTA (GIBCO) at 37° C. for 10 min. Following incubation, FCS (v/v) was added for 5 min., the cells were removed from the tissue culture flasks, washed in PBS, transferred to new tissue culture flasks at a low density, and incubated with fresh tissue culture media. The cells were expanded and tested until all hematopoietic elements were no more present and all cells were CD45-negative.
For the normal marrow stoma cultures, human bone marrow stroma cells were grown from the bone marrow of healthy individuals as described above. When the cultures had matured and formed homogenous layers of fibroblast-looking cells, the cells were trypsinized and analyzed by fluorescence activated cell scanner/sorter (FACS; above) for the presence of the cell surface marker CD45. When the adherent fibroblast-like cells became CD45-negative, the cells were harvested and transferred to another tissue flask (day 1 of culture).

[6] = test system: normal bone marrow-derived CD45-negative MSCs; test: FACS analysis of endothelial markers CD133 and VEGFR-2 in treated bone marrow-derived CD45-negative MSCs; format: cell-based, human; details: five ng/mL 5-azacytidine days 1 and 4, 100 ng/mL EGF days 7 and 10; FACS day 13
Protocol: FIG. 9: Conversion of normal human bone marrow stroma to endothelial progenitor cells by 5-azacytidine and endothelial growth factor (EGF). Normal bone marrow-derived CD45-negative MSCs were used in this experiment and Five ng/mL of 5-azacytidine was added to culture on days 1 and 4, and 100 ng/mL EGF were added on days 7 and 10. The cultures were analyzed on day 13. The cells were stained with anti-CD133 APC and anti-VEGFR-2 PE antibodies and analyzed by FACS as described above. […] Note that the when treated with AZA+EGF 7.34% of MSC become CD133^+VEGFR-2^+.
In the next set of experiments the inventors determined whether fibroblasts could be reprogrammed to generate endothelial cells. […] Then, the cells were analyzed for the expression of two endothelial cell markers; the endothelial progenitor marker CD-133, as well as the expression of vascular endothelial growth factor-2 receptor (VEGFR-2).
In particular, normal bone marrow-derived CD45-negative mesenchymal cells (ie., bone marrow-derived fibroblastic cells) were used in this experiment and five ng/mL of 5-azacytidine was added to culture on days 1 and 4, and 100 ng/ml EGF were added on days 7 and 10. The cultures were analyzed on day 13. The cells were stained with anti-CD133 APC and anti-VEGFR-2 PE antibodies and analyzed by FACS as described above. […]

Row | Molecule | effect on 5-methylcytidine (DNA methylation) [1] | conversion into CD45-positive cells (in words) [2] | lateral/forward scatter analysis of the cell population [2] | microscopic evaluation of the colonies [3] | cells expressing CD45 [4] | CD45 expression (in words) ([5]; FACS day 13) | CD45 expression (in words) ([5]; FACS day 13, listed as 5-Azacytidine) | CD45 expression (in words) ([5]; FACS day 13, listed as 5-azcytidine) | CD133+VEGFR-2+ cells [6]
1 | Nc1ncn([C@@H]2O[C@H](CO)[C@@H](O)[C@H]2O)c(=O)n1 [5-azacytidine] | hypomethylates | converted them into CD45-positive cells | generates a new transdifferentiated (“differentiated”) population of cells | characteristics of mixed granulocyte macrophage lineage | 3.5% and 11% | slightly increased | unable to give rise to a significant number of blood cells | remained CD45-negative | 4.14%
2 | EGF: epidermal growth factor |  |  |  |  |  |  |  |  | < 1.5%
